Several values for one entry are separate records, joined by “and”; a condition that tells them apart may be missing. Equal entries are not always repeated. Entries after “also recorded” stand apart in the source; their conditions may differ.
Experiments:
[1] = tested on: Wnt/β-Catenin signaling pathway; test: Wnt signaling luciferase (TOPflash) reporter gene assay; assay type: cell-based; conditions: luciferase reporter gene assay; mean of three independent experiments; read-out: IC50 (nM) to inhibit the Wnt signaling activity
From the text: A dual-luciferase gene reporter assay was used to test inhibitory activities of new compounds on Wnt signaling. […] Therefore, the effects of new compounds on AMPK was examined. […]

[2] = Cytotoxicity (CC50) during the luciferase gene reporter assay; assay type: cell-based; conditions: human, HEK293 cells; short treatment duration of the luciferase gene reporter assay
[3] = physchem
Procedure: The ADMET and PK properties of YA6060 was determined.
Determination of physiochemical properties. The profiles of six selected analogs is estimated in silico, and selected Axin stabilizers are evaluated in in vitro assays: the aqueous solubility is determined using a multiscreen solubility filter plate (Millipore, Billerica, MA) coupled with LC-MS/MS, as performed for the already synthesized YA6060 analogs; the cell viability assays on selected analogs is measured using HEK293 cells; the intestinal permeability by determining the transport from the apical to the basolateral (A to B) in Caco-2 monolayers; the metabolic stability by incubating the compounds with mouse microsomes and liver tissue S9 fraction and analyzing by LC-MS/MS.

[4] = Toxicity evaluation in mice (oral gavage); assay type: in vivo
Procedure: FIG. 8 illustrates the preliminary toxicity evaluated for YA6060 in major mouse organs. […] 11 weeks C57BL/6 mice were treated for […]. The isolated tissues were stained by Haematoxylin and Eosin (H&E). The images were taken under an amplification of 20×.
Body weight change was measured over time in mice received YA6060. […]

[5] = Toxicity in normal HEK293 cells; assay type: cell-based; conditions: human
Procedure: YA6060 has an excellent druglike profile. […] The ADMET and PK properties of YA6060 was determined.

[6] = tested on: AMPK; test: Western blotting of phosphorylated AMPK in HEK293 cells; assay type: cell-based; conditions: 100 nM, 24 h
Procedure: (§1) FIG. 6A-FIG. 6E illustrate the development of Axin stabilizers with dual activities of Wnt inhibition and AMPK activation. […] HEK293 cells were used. B&C: 100 nM compounds, 24 h. FIG. 6D is a table showing the activity profile of YA6060. F=bioavailability; soubility is aqueous solubility.
(§2) A dual-luciferase gene reporter assay was used to test inhibitory activities of new compounds on Wnt signaling. […] Axin is also reported to form a complex with AMPK and its upstream kinase LKB1 (FIG. 12A and FIG. 12B) to facilitate AMPK activation. Therefore, the effects of new compounds on AMPK was examined. […] YA6060 and its analogs had dual activities of potent Wnt signaling inhibition and AMPK activation, which were dependent on the levels of scaffolding protein Axin.

[7] = biological target: β-catenin (Homo sapiens (Human), UniProt P35222); test: Western blotting of β-catenin in HEK293 cells; assay type: cell-based; conditions: 100 nM, 24 h
Procedure: as §1, §2

[8] = biological target: Axin 1 (Homo sapiens (Human), UniProt O15169); test: Western blotting of Axin 1 in HEK293 cells; assay type: cell-based; conditions: 100 nM, 24 h
Procedure: as §1, §2

[9] = Hygroscopicity; assay type: physicochemical; conditions: HCl salt
From the text: This Example provides evidence to access the therapeutic potential of simultaneously targeting Wnt signaling and AMPK pathways as novel anti-CRC therapeutic strategy. […] In addition, the chemical structure of YA6060 contains multiple C—H bonds that are liable to P450-mediated oxidations in the liver. Therefore, novel YA6060 analogs with acceptable non-hygroscopicity along with excellent metabolic stability are highly desirable for its further development.
Non-hygroscopic salts of YA6060. YA6060 is an HCl salt with high hygroscopicity. YA6060 can readily absorb moisture from the environment that limits the stability and the further therapeutic application of the compound. Non-hygroscopic salts of YA6060 are generated by screening the anionic of the neutral amino parent YA6060 with a panel of acids that has been reported to form acceptably non-hygroscopic salts. Specific acids include valproic (1), maleic (2), tartaric (3), oxalic (4) and pamoic (5) acids, to get the corresponding salts.

Cc1ccccc1-n1nnc(C(=O)Nc2ccc3cc(CN4CCNCC4)ccc3n2)c1C [YA6060]
IC50 [1]: 4.3 nM and 4 nM
CC50 [2]: > 92000 nM
aqueous solubility [3]: > 75 mg/mL
increase in aqueous solubility from FX1128 and FX2065 [3]: over 10,000 fold
solubility ([3]; water, aqueous solubility): > 78 mg/mL
MTD at 21 days ([4]; C57BL/6, mouse, in vivo, oral, 500 mg/kg, mice, single dose): > 500 mg/kg
acute toxicity test (body weight change) ([4]; mouse, in vivo, po): did not exhibit acute toxicity
toxicity / tolerability in mice, histology of major organs ([4]; oral gavage 500 mg/kg once, 21-day evaluation): no obvious toxicity; also recorded: no noticeable toxic effects; also recorded: well tolerated; also recorded: No histological changes
safety margin over an efficacy dose (0.5 mg/kg) for liver fibrosis ([4]; single dose of 500 mg/kg): > 1,000 fold
IC50 [5]: > 100000 nM
levels of phosphorylated AMPK (p-AMPK) [6]: significantly increased
protein level of β-catenin [7]: decreased
level of Axin 1 [8]: stabilizing
hygroscopicity [9]: highly hygroscopic

From patent US20240279201A1, “DUAL WNT SIGNALING PATHWAY INHIBITORS AND AMPK ACTIVATORS FOR TREATMENTS OF DISEASE” (priority 2021, published 2024)
